Results reported in publication PMC7457533, “Characterization of thrombin/factor Xa inhibitors in Rhizoma Chuanxiong through UPLC-MS-based multivariate statistical analysis” (Chinese Medicine, 2020).

Target: T1, thrombin (THR) (Homo sapiens, UniProt P00734)
T1 construct: gene F2
Assay: capillary electrophoresis immobilized enzyme microreactor, S-2238; percent inhibition at […]
Format: biochemical
Conditions: read-out: Inhibition percentage (%)

Row | SMILES | inhibition at 500 µM [%]
1 | CCC/C=C1\OC(=O)C2=C1CCC=C2 [d, Z-ligustilide] | 36.9 ± 2.37
2 | CCCCC1OC(=O)C2=C1CCC=C2 (centres unmarked) [a, Senkyunolide A] | 41.9 ± 1.84
